The source of these data is ChEMBL document CHEMBL1201862, “PubChem BioAssay data set” (2004).

The structures appear in SMILES notation. Calls of active or inactive are those of the source. A value given as a limit tells only on which side of the number the result lay.

The target in one test is Cytochrome P450 3A4 (Homo sapiens, UniProt P08684). Conditions: Potency.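 Note: confirmatory qHTS run detecting inhibitors and substrates of CYP3A4.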
The nature of test [1]: viability of PTEN-deleted HCT116 cells – cell-based, HCT116 PTEN knockout, dose response (AID 1047).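 Note: HCT116 colon tumor cells with PTEN knocked out; cells exposed to compound for 60 hours before readout; potency for loss of cell viability measured by luminescence.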 Format: functional.
The nature of test [2]: viability of HCT116 lacking mutant beta-catenin – cell-based, human colon tumor, dose response (AID 1045).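 Note: HCT116 colon tumor cells with beta catenin knocked out; cells exposed to compound for 60 hours.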 Type of test: functional.
The target of test [3] is Eukaryotic translation initiation factor 4E (Mus musculus, UniProt P63073). The test can be described thus: blockers of eIF4G binding by eIF4E – biochemical, TR-FRET, dose response (AID 855).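 Note: potency for disrupting eIF4E binding to eIF4GI seen as loss of FRET.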 Format: functional.
Chain of Eukaryotic translation initiation factor 4E (P63073 whole entry): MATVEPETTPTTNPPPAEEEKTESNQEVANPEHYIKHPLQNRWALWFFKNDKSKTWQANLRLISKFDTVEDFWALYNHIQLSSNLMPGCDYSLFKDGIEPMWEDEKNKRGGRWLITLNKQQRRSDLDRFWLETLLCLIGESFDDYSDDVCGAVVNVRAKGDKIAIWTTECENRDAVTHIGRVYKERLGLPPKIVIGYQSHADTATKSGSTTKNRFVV
In test [4] the target is T1, Short transient receptor potential channel 4 (Mus musculus, UniProt Q9QUQ5).
T1 sequence (Q9QUQ5 whole entry): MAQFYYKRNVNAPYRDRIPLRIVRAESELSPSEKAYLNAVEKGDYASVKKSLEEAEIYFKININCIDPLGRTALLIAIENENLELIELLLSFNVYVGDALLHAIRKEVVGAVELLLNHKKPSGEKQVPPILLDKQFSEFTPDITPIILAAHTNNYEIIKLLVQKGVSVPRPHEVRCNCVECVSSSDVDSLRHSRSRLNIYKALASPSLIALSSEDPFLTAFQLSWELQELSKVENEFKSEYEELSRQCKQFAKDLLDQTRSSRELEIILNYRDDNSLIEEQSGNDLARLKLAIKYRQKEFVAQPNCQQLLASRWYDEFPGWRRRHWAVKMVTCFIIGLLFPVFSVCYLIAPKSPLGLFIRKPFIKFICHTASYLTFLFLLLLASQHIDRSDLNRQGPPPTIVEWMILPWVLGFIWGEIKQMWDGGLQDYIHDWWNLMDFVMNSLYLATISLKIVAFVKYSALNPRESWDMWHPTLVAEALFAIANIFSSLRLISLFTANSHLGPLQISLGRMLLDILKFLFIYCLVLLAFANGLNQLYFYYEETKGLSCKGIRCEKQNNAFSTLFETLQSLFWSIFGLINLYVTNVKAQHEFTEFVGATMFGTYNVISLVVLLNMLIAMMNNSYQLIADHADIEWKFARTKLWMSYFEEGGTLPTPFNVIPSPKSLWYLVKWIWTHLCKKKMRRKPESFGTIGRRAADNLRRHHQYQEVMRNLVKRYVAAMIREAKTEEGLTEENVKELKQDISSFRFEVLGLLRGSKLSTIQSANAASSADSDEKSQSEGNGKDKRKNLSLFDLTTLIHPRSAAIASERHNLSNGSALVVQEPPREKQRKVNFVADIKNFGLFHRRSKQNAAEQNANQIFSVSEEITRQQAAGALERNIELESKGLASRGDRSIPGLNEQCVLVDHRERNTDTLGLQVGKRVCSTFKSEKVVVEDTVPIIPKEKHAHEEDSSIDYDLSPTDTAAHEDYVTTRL
The test can be described thus: calcium entry via TRPC4 opening agents – cell-based, HEK293 TRPC4/mu-opioid, Fluo-4 calcium, dose response (AID 434937). Type of test: functional.

A short description of test [5]: A cytotoxicity screen of small molecule inhibitors of the PhoP region in Salmonella typhi identified in the primary screen. [Related pubchem assays: 1850, 1864, 1985 ]. Format: functional.
The target of test [6] is Voltage-dependent T-type calcium channel subunit alpha-1H (Homo sapiens, UniProt O95180). Type of test: functional.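 Note: channel activity triggered by adding a high calcium stimulation buffer.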
Chain of Voltage-dependent T-type calcium channel subunit alpha-1H (O95180 whole entry): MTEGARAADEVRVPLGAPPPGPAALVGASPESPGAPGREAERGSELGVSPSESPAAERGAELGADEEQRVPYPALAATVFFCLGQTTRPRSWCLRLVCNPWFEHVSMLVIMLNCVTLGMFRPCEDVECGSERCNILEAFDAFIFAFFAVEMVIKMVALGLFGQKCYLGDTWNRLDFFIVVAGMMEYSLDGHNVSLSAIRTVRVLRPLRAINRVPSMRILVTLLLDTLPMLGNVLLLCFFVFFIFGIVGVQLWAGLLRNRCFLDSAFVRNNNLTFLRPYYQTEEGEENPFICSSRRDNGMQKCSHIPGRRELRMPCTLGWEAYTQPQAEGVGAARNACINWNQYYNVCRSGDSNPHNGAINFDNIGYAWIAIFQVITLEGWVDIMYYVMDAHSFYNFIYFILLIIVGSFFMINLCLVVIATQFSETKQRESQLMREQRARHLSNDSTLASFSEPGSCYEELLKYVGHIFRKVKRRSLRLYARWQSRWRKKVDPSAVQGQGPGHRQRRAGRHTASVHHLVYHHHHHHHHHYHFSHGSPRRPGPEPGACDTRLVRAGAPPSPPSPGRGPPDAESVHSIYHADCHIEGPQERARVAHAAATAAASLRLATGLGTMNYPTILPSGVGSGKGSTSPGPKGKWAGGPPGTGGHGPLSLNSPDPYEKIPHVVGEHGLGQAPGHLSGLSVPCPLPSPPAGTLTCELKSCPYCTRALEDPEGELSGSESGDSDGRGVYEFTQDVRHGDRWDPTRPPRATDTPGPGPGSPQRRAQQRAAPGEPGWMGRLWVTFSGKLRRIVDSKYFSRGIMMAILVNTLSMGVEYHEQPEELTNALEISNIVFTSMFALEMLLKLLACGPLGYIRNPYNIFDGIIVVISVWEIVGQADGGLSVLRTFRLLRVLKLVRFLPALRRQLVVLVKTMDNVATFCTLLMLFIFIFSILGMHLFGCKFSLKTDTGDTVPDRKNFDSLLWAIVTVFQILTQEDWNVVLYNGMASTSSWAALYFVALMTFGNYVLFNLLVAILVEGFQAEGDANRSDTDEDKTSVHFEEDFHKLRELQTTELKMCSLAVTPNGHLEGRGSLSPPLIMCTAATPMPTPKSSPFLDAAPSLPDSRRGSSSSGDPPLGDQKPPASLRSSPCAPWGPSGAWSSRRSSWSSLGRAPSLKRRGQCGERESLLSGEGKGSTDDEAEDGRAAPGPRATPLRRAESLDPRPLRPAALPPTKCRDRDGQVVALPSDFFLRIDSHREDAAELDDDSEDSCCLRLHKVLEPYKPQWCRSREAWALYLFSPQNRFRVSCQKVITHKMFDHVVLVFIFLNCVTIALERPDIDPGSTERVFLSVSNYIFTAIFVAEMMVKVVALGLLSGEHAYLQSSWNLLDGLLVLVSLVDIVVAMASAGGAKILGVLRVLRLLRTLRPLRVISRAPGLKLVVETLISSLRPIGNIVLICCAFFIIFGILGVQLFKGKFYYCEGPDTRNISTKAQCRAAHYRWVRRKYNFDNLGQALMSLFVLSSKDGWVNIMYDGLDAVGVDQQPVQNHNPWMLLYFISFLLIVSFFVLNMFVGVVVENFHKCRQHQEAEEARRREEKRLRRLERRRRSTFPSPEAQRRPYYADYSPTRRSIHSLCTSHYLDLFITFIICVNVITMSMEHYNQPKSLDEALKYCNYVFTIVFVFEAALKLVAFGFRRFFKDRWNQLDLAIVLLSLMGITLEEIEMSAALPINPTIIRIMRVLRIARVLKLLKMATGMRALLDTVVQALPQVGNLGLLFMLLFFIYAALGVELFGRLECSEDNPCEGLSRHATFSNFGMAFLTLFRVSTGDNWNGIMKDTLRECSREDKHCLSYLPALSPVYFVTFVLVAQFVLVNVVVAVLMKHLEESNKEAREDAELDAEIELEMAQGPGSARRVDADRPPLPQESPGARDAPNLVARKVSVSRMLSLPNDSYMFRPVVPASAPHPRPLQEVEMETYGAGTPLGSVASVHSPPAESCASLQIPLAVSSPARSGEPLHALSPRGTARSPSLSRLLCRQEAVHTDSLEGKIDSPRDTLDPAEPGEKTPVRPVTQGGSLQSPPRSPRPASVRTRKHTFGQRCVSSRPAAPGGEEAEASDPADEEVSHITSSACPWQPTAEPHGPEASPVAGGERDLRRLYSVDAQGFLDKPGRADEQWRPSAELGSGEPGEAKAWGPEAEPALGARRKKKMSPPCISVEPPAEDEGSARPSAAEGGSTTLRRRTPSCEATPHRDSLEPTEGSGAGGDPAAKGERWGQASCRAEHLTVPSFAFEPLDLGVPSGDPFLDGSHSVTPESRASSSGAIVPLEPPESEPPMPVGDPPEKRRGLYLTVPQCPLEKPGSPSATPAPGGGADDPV
The subject of test [7] is Streptococcus sp. 'group A'. The test can be described thus: Streptococcus pyogenes SK(-)GAS viability under kanamycin – luminescence, BacTiterGlo, confirmation, counter-screen for streptokinase expression inhibitor project, dose response (AID 1900). Format: functional, organism-based.
In the next test the test system is Streptococcus. The test can be described thus: GAS UMAA2166 growth inhibition – luminescence, BacTiterGlo, counter-screen for streptokinase expression inhibitor project, dose response (AID 1915).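 Note: potency for reduction of bacterial viability or growth.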 Format: functional, organism-based.
For test [8], the target named is T2, Corticotropin-releasing factor receptor 2/Corticotropin-releasing factor-binding protein (Homo sapiens, UniProt P24387+Q13324).
T2 sequence (Q13324 whole entry): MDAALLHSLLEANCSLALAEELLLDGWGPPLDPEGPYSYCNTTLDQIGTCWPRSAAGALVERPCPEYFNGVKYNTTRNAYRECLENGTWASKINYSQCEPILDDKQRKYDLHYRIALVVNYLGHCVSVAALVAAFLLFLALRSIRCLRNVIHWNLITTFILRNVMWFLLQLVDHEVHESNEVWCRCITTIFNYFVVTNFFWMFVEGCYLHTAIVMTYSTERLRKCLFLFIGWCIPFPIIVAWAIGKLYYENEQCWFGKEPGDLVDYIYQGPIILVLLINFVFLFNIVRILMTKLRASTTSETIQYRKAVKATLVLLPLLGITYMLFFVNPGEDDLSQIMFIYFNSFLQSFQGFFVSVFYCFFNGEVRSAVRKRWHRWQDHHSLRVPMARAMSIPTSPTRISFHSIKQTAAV
T2 sequence (P24387 whole entry): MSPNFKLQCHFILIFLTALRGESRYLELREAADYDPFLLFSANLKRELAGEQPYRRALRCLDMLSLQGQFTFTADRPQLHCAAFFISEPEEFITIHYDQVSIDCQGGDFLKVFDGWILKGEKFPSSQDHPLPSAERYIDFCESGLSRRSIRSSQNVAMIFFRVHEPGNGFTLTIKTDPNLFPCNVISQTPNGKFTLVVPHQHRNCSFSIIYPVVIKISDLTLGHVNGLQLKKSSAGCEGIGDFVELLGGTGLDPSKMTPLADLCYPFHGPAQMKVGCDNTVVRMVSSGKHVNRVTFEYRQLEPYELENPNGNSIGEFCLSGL
The test can be described thus: Dose Response confirmation of uHTS hits for small molecule antagonists of the CRF-binding protein and CRF-R2 receptor complex. Type of test: functional. Conditions: read-out: IC50_Mean.

Test [9] addresses T2, Corticotropin-releasing factor receptor 2/Corticotropin-releasing factor-binding protein. The test can be described thus: activators of CRF receptor 2 with binding protein – uHTS hits, confirmation (AID 602473). Type of test: functional. As to conditions: read-out: EC50_Mean.
A further test has as its system Vero. The test can be described thus: cells. Conditions: Chlorocebus sabaeus. Format: functional.
Test [10] can be described thus: HGIII-sPLA2 enzyme inhibition potency – biochemical, QFRET, IC50, dose response (AID 743457).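 Note: green fluorescence rise as the enzyme cleaves BODIPY PC-A2 in liposomes.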
Test [11] in a line: luciferase reporter signal suppression in cells – H4 neuroglioma cells, luminescence, dose response (AID 1990). Type of test: functional, cell-based.
Test [12] is described as follows: Luminescence Cell-Based Dose Response HTS to Identify Inhibitors of 5'UTR Stem-Loop Driven Prion Protein mRNA Translation in H4 Neuroglioblastoma Cells. [Related pubchem assays: 1827 (Project Summary), 1813 (Primary HTS)]. Format: functional.
The nature of test [13]: alpha-synuclein stem-loop luciferase translation blockers – H4 neuroglioma cells, luminescence, confirmation (AID 1988). Format: functional, cell-based.
Test [14] in a line: HEK-293T viability loss after treatment – luminescence, T-cell screen hits, cytotoxicity control for TCR NF-kB inhibitor project, dose response (AID 489026).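 Note: cells exposed to compound about 14 hours before the viability readout.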 Format: functional, cell-based.
The next test addresses T3, Aminopeptidase N (Plasmodium falciparum FcB1/Columbia, UniProt O96935).
T3 sequence (O96935 whole entry): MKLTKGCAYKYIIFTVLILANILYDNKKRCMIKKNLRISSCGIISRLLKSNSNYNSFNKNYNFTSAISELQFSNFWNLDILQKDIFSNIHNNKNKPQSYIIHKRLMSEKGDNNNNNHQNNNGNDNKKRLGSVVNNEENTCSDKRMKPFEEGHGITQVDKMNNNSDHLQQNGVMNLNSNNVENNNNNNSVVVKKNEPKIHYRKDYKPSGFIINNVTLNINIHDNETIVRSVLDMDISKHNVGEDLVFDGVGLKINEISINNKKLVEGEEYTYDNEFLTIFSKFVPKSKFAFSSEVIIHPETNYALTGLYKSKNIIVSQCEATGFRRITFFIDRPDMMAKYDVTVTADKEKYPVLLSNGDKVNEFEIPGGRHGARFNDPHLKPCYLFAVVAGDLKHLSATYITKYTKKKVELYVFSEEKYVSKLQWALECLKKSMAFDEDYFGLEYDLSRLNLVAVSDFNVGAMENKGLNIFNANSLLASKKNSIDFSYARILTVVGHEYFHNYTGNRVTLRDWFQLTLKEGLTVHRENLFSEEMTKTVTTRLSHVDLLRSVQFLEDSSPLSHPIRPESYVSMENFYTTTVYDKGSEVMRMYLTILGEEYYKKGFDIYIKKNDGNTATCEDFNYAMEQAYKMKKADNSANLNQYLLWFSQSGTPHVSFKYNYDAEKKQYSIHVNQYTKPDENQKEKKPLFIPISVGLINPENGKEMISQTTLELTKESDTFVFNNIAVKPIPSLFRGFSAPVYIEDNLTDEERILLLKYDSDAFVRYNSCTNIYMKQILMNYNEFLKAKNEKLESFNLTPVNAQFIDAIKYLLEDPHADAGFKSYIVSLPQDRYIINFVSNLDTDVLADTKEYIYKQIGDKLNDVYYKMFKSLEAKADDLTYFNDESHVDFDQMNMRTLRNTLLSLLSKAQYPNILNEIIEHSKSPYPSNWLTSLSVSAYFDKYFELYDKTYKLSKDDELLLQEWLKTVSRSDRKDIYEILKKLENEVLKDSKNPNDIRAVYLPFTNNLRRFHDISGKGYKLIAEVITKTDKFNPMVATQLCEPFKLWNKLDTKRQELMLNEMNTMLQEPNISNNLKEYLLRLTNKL
The test can be described thus: malaria alanyl aminopeptidase activity blockers – biochemical, fluorogenic H-Leu-NHMec substrate, 1536-well (AID 1445). More on the design: species or system Plasmodium falciparum 3D7, 3D7.

The nature of test [15]: blockers of CRF-binding protein–CRF-R2 complex – cell-based, uHTS hits, 384-well, dose response (AID 651639). Type of test: functional, Homo sapiens. Conditions: read-out: IC50_Mean.

Chain of Cytochrome P450 3A4 (P08684 whole entry): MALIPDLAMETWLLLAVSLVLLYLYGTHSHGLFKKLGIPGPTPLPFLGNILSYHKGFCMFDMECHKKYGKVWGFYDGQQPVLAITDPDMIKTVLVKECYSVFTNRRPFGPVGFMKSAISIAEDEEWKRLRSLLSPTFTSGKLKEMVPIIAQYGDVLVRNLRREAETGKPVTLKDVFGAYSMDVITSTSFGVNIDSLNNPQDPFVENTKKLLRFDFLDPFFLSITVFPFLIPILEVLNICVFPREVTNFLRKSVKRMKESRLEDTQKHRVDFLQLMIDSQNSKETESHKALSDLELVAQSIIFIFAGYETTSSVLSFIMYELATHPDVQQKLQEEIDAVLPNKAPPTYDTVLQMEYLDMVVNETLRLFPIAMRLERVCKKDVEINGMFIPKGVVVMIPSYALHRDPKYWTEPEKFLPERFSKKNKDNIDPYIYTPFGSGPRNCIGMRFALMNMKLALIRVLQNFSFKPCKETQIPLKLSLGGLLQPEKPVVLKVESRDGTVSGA

Consider `C[C@@H]1O[C@@H](O[C@@H]2[C@@H](O)[C@H](OCCc3ccc(O)c(O)c3)O[C@H](CO[C@@H]3O[C@H](CO)[C@@H](O)[C@H](O)[C@H]3O)[C@H]2OC(=O)/C=C/c2ccc(O)c(O)c2)[C@H](O)[C@H](O)[C@H]1O`, for which, on Cytochrome P450 3A4, the AC50 is 7.94 µM (inconclusive).

Turning to `C=CCCCCCCCCCCC/C=C/C(O)COC(C)=O` (stereo unspecified) [DEHYDROAVOCATIN-1-ACETATE], the AC50 at Cytochrome P450 3A4 was 39.8 µM (inconclusive).

Consider `CCOC(=O)c1c(CSC(=N)N)n(-c2ccc(Br)cc2)c2cc(Br)c(OC(C)=O)cc12`, for which the EC50 in [1] is 16.1 µM (active); in test [2], 14.3 µM (active). The IC50 in test [3] is > 64 µM (inactive).

`CCCN(CCC)CCCNC(=O)c1ccc2c(Cl)c3c(nc2c1)CCC3`: in test [4], the EC50 is 0.0107 µM (active).

`c1ccc2sc(N3CN(CCN4CCOCC4)CN(c4nc5ccccc5s4)C3)nc2c1`: the EC50 is > 50 µM (active) in test [5] and 5.23 µM (active) in [6].

Regarding `CC1(C(=O)NCCN2CCOCC2)C=CCN1C(=O)c1ccccc1` (stereo unspecified), the concentration at half-maximal activity (AC50) on Cytochrome P450 3A4 was 25.1 µM (inconclusive).

Take `Cc1sc(NC(=O)Cn2nc(C(F)(F)F)cc2C)c(C(=O)OC(C)C)c1C`: in test [3], the IC50 is > 64 µM (inactive).

Take `Cc1cc(C)n(-c2nnc3n2N=C(c2ccccc2)CS3)n1`: in test [3], the IC50 is > 64 µM (inactive).

As to `CCCCCCN(C(=O)CCCCCN1C(=O)NC(c2ccc(-c3ccccc3)cc2)C(C(=O)OCc2ccccc2)=C1C)C(C(=O)NCCCC)c1cccc(C(=O)OC)c1` (stereo unspecified), on Cytochrome P450 3A4, the half-maximal activity concentration (AC50) is 2.51 µM (inconclusive).

As for `CCOC(=O)c1oc2ccc(OC)cc2c1NC(=O)CN1CCN(C)CC1`, the EC50 in test [4] was 1.06 µM (active).

As to `CSCc1nnc(NC(=O)c2ccc(S(=O)(=O)N(CC(C)C)CC(C)C)cc2)o1`, the EC50 in test [7] was 1.01 µM (active); with Streptococcus, 2.51 µM (active); in test [6], 3.07 µM (active).

`COc1ccc(O)c(/C=C(\C#N)C(=O)Nc2cccnc2)c1`: the IC50 in [3] was > 64 µM (inactive).

On to `Cc1onc(-c2c(F)cccc2Cl)c1C(=O)N1CCN(c2ncc(Br)cn2)CC1`, for which the EC50 in test [4] was 4.73 µM (active); in test [9], > 53 µM (inactive). Moreover, the IC50 in test [8] is > 47.1 µM (inactive).

`Cc1ccc(-n2c(Cc3cccn3C)nnc2SCC(=O)Nc2ccc3c(c2)OCO3)cc1`: in test [6], the EC50 is 1.25 µM (active).

`O=C(NNC(=S)NC(=O)c1ccccc1Cl)c1cccc([N+](=O)[O-])c1`: the figures for the EC50 in test [4] and in test [9] were 5.96 µM (active) and 11.2 µM (active), respectively. Further, in the test with Vero, the CC50 is > 25 µM (active). Besides, the IC50 in test [10] is 22.3 µM (inactive).

For `Cc1oc(-c2ccccc2Cl)nc1C[S+]([O-])CC(=O)NCCCN1CC(C)CC(C)C1` (stereo unspecified), the EC50 in test [4] is 0.299 µM (active).

For `COc1ccccc1NC(=O)C1=C(C)Nc2nc3ccccc3n2C1c1cccs1` (stereo unspecified), the EC50 in [11] was 7.89 µM (inconclusive); in [12], 9.88 µM (active); in test [13] it was 5.03 µM (active). Besides, the IC50 in test [14] is > 80 µM (inactive).

Regarding `CC(C)N1C(=O)S/C(=C/c2ccccc2OCc2ccc(C(=O)O)cc2)C1=O`, the results for the IC50 (on Aminopeptidase N; in test [8]; in test [15]) were 38.1 µM (active), 25.5 µM (active) and > 20 µM (inactive), respectively. Besides, the EC50 in test [9] was > 53 µM (inactive).

`CCN(CC)S(=O)(=O)c1cc(C(=O)Nc2ccc(Cl)cn2)ccc1C`: the EC50 in test [6] is 2.3 µM (active).

For the molecule `Cc1ccc(-c2nnn(C(C)C(=O)N3c4ccccc4CCc4ccccc43)n2)cc1` (stereo unspecified), the EC50 in test [6] is 7.47 µM (active).
